Experimental data reported in patent US20240208945A1, “6-CARBAMATE SUBSTITUTED HETEROARYL RING DERIVATIVES” (MEDSHINE DISCOVERY INC., priority 2021, published 2024).
Structures can show the parent of a compound that is named as a salt.

Tests used:
[1] = tested on: Human pancreatic cancer cells (Miapaca2); experiment: In vivo drug efficacy in the Miapaca2 nude mouse xenograft tumor model; parameters: species or system Balb/c nude mice; conditions: Miapaca-2 xenograft, AMG-510 5 mg/kg once a day, compound 14 hydrochloride 50 mg/kg twice a day, intragastric
Experimental: Human pancreatic cancer cells (Miapaca2) were cultured in vitro as a monolayer on an adherent surface, and the culture conditions were DMEM medium plus 10% fetal bovine serum, cultured in a 37° C., 5% CO2 incubator. The cells were treated with trypsin-EDTA for routine digestion and passaged two to three times a week. When the cell saturation was 80% to 90% and the number reached the requirements, the cells were collected, counted, and inoculated.
Balb/c nude mice, female, 6 to 7 weeks old, were purchased from Shanghai SIPPR-BK Lab Animal Co., Ltd.
0.2 mL (5×10^6) Miapaca-2 cells (plus Matrigel, volume ratio of 1:1) were subcutaneously inoculated on the right back of each mouse, and the administration in groups began when the average tumor volume reached 118 mm^3.
The tumor diameter was measured twice a week with a vernier caliper, and the tumor volume was measured in cubic millimeters, calculated by the following formula: V=0.5a×b^2, wherein a and b are the long and short diameters of the tumor, respectively. The tumor inhibitory efficacy of the test compound was evaluated by using TGI (%). TGI (%) reflects the rate of tumor growth inhibition. […]

[2] = biological target: binding of KRAS(G12C) to SOS1 (Homo sapiens (Human), UniProt Q07889); experiment: KRAS(G12C) and SOS1 binding assay (HTRF); conditions: 25° C., 60 minutes
Excerpt: The small molecular compound binds to the catalytic site of SOS1, thus inhibiting the binding of SOS1 to KRAS (G12C). When the binding of fluorescently labeled SOS1 protein to fluorescently labeled KRAS (G12C) protein is inhibited, the emitted fluorescence changes. The ability of small molecules to prevent the binding of SOS1 to KRAS (G12C) can be tested by detecting changes in fluorescence. A homogeneous time-resolved fluorescence (HTRF) binding assay was used to detect the ability of the compounds of the present disclosure to inhibit the binding of SOS1 to KRAS (G12C).
KRAS (G12C) protein was expressed and purified by Wuhan AtaGenix Biotechnology Co., Ltd., SOS1 exchange domin (564-1049) protein (Human recombinant) was purchased from Cytoskeleton, Mab Anti 6HIS-XL665 and Mab Anti GST-Eu cryptate were purchased from Cisbio. Multimode microplate reader Nivo5 was purchased from PerkinElmer.
1× buffer preparation (ready-to-use): Hepes: 5 mM; NaCl: 150 mM; EDTA: 10 mM; Igepal: 0.0025%; KF: 100 mM; DTT: 1 mM; BSA: […];
The test compounds were 5-fold diluted with DMSO using a multi-channel pipette to the 8th concentration, i.e., diluted from 1 mM to 0.064 μM.
The test compound was diluted by gradient with 1× buffer to a working solution with 2% DMSO. 5 μL/well of the working solution was added to corresponding wells, and the corresponding concentration gradient was 20 μM to […]. Duplicate experiment was set. The working solution was centrifuged at 1000 rpm for 1 minute.
A mixed working solution of KRAS(G12C) (200 nM) and Mab Anti GST-Eu cryptate (1 ng/μL) was prepared with 1× buffer, and the mixed working solution was incubated at 25° C. for 5 minutes, and 2.5 μL/well of the mixed working solution was added to the corresponding wells.
A mixed working solution of SOS1 (80 nM) and Mab Anti 6HIS-XL665 ([…]) was prepared with 1× buffer, and 2.5 μL/well of the mixed working solution was added to the corresponding wells. 2.5 μL of Mab Anti 6HIS-XL665 ([…]) diluent was added to blank wells. At this time, the final concentration gradient of the compound was diluted from 10 μM to 0.64 nM, KRAS(G12C) ([…]), MAb Anti GST-Eu cryptate (0.25 ng/μL), SOS1 (20 nM), Mab Anti 6HIS-XL665 (2 g/μL), the reaction system was placed at 25° C. for 60 minutes. After the reaction was completed, the multimode microplate reader was used to read HTRF.
Using the equation (Sample−Min)/(Max−Min)×100% to convert the raw data into inhibition rate, the IC50 value might be obtained by curve fitting with four parameters (obtained by “log (inhibitor) vs. response—Variable slope” mode in GraphPad Prism).

[3] = Pharmacokinetic evaluation in CD-1 mice (IV and oral); type: in vivo; conditions: mouse, plasma
Experimental: CD-1 mice (male, 7 to 9 weeks old, Shanghai SLAC)
The pharmacokinetic characteristics of the compound in rodents after intravenous injection and oral administration were tested according to the standard protocol. In the experiment, the candidate compound was formulated into clear solutions, and a single intravenous injection and oral administration were given to mice. The vehicle for intravenous injection and oral administration was a mixed vehicle composed of 10% dimethyl sulfoxide and 90% hydroxypropyl β-cyclodextrin with a content of 10%. In this project, four female CD-1 mice were used, and two mice were administered intravenously at a dose of 1 mg/kg. Plasma samples were collected at 0.033, 0.083, 0.25, 0.5, 1, 2, 4, 8, and 12 hours after administration. The other two mice were administered orally by gavage at a dose of 2 mg/kg. Plasma samples were collected at 0.083, 0.25, 0.5, 1, 2, 4, 8, and 12 hours after administration, […] at 4° C. for 10 minutes at 3,200×g, and the supernatants were separated from the plasma samples. The protein was precipitated by adding 20 times the volume of methanol solution containing internal standard, […] at 12000×g for 15 minutes, centrifuged at 4° C. 50 μL of the supernatant was transferred to a 96-well plate and centrifuged for a second time to take the supernatant for injection. The plasma concentration was quantitatively analyzed by LC-MS/MS analysis method, and the pharmacokinetic parameters were calculated, such as peak concentration (Cmax), clearance rate (CL), half-life (T1/2), volume of distribution at steady state (Vdss), area under drug-time curve (AUC0-last), bioavailability (F).

p-ERK in DLD-1 cells = experiment: p-ERK inhibitory activity test in DLD-1 cells (HTRF Phospho-ERK1/2 kit); type: cell-based; conditions: Homo sapiens, 1 hour incubation
Experimental: DLD-1 cells were purchased from Nanjing Cobioer; 1640 medium was purchased from Biological Industries; fetal bovine serum was purchased from Biosera; Advanced Phospho-ERK1/2 (THR202/TYR204) KIT was purchased from Cisbio.
DLD-1 cells were seeded in a transparent 96-well cell culture plate, with 80 μL of cell suspension per well and 8000 DLD-1 cells per well. The cell plate was incubated in a carbon dioxide incubator at 37° C. overnight; • the test compound was diluted to 2 mM with 100% DMSO as the first concentration, and then 5-fold diluted to the 8th concentration with a pipette, that is, diluted from 2 mM to 0.026 μM. 2 μL of compound was added to 78 μL of cell starvation medium. After mixing well, 20 μL of compound solution was taken and added to the corresponding cell plate wells, and the cell plate was put back to the carbon dioxide incubator to continue to incubate for 1 hour; at this time, the concentration of the compound was from 10 μM to 0.128 nM, and the concentration of DMSO was 0.5%; • after the incubation was completed, the cell supernatant was discarded, and 50 μL of cell lysate was added to each well, and incubated at room temperature for 30 minutes with shaking; • Phospho-ERK1/2 Eu Cryptate antibody and Phospho-ERK1/2 d2 antibody were 20-fold diluted using Detection buffer; • 16 μL of cell lysate supernatant per well was put into a new 384 white microplate, then 2 μL of Phospho-ERK1/2 Eu Cryptate antibody diluent and 2 μL of Phospho-ERK1/2 d2 antibody diluent were added thereto and incubated at room temperature for 4 hours; • after the incubation was completed, a multimode microplate reader was used to read HTRF excitation: 320 nm, emission: 615 nm, 665 nm.
Using the equation (Sample−Min)/(Max−Min)*100% to convert the raw data into inhibition rate, the IC50 value might be obtained by curve fitting with four parameters (obtained by “log (inhibitor) vs. response—Variable slope” mode in GraphPad Prism). • Max well: Positive control well reading is 1× lysate • Min well: Negative control well reading is 0.5% DMSO cell well cell lysate

Sequence of binding of KRAS(G12C) to SOS1 (Q07889 564-1049, stated change not applied): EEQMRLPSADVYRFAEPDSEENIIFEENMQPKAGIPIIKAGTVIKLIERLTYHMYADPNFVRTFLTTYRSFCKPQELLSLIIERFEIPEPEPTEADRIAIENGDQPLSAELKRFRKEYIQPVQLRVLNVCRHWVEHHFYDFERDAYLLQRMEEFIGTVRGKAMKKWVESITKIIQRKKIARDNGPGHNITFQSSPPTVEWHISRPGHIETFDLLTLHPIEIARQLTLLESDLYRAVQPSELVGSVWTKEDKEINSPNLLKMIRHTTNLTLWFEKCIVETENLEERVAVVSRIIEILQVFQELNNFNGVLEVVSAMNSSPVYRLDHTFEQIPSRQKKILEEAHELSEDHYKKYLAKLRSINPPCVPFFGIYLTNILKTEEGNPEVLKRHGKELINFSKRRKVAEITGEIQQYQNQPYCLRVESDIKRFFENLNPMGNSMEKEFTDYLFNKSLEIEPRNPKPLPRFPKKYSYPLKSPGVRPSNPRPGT

SMILES | Mean tumor volume ± SEM (day 22) [1] | TGI ([1]; day 22) | IC50 [2] | Cmax ([3]; IV 1 mg/kg and oral 2 mg/kg study, read-out: Peak concentration Cmax) | bioavailability ([3]; IV 1 mg/kg, PO 2 mg/kg, read-out: Bioavailability F) | clearance ([3]; IV 1 mg/kg, read-out: Clearance rate CL) | half-life ([3]; IV 1 mg/kg, read-out: Half life T1/2 (IV) (converted)) | Vd ([3]; IV 1 mg/kg, read-out: Volume of distribution at steady state Vdss) | AUC(0-t) ([3]; PO 2 mg/kg, read-out: Area under drug-time curve AUC0-last PO) | IC50 (p-ERK in DLD-1 cells)
C=CC(=O)N1CCN(c2nc(=O)n(-c3c(C)ccnc3C(C)C)c3nc(-c4c(O)cccc4F)c(F)cc23)[C@@H](C)C1 (atropisomer, axis not shown) [AMG-510] | 819 ± 407 mm^3 | 59.4% |  |  |  |  |  |  |  | 
COc1cc2nc(C)nc(N[C@H](C)c3cccc(C(F)(F)C(C)(C)O)c3F)c2cc1OC(=O)N1CCN(C)CC1C (stereo partly shown) [Hydrochloride of compound 14] |  |  | 40.4 nM | 92.3 nM | 33.9% | 29.2 mL/min/kg | 2.96 h | 4.95 L/kg | 0.606 µM·h | 78.9 nM
